For one series, the system named is urinary leukotriene E4. In words: Urine LTE4, DG-031 crossover clinical trial. It is filed as in vivo, human. The conditions noted are these: highest dosage of DG-031 (750 mg/day); nominal p=0.00002. On the procedure: (§1) In the short term study, changes in levels of biomarkers that are associated with risk of MI were scored as evidence of changes in the risk of MI.
(§2) Patients (191 subjects) who met the study eligebility criteria were enrolled and randomized into 3 different dose-level groups: (1) 64 patients on 250 mg/day therapy with DG-031 (250 mg q.d.), vs placebo; (2) 64 patients on 500 mg/day therapy with DG-031 (250 mg b.i.d.) vs placebo; and (3) 63 patients on 750 mg/day therapy with DG-031 (250 mg t.i.d.) vs placebo. […] All patients received 3 tablets per day. Treatment periods, 4 weeks in duration each, were separated by a 2-week washout period. […]
(§3) All data were analyzed according to a pre-established analysis plan and by intention-to-treat. […] The difference between DG-031 and placebo treatment was the primary outcome, assessed separately for each of the biomarkers. […]
(§4) Apart from measurements in plasma, LTB4 and MPO were also measured in whole blood preparations ex vivo following ionomycin-activation of leukocytes, using ELISA and mass spectrometry. […] On the log scale the adjustment was based on a linear model, with coefficients determined empirically at time of blind review. Several tertiary markers were also measured including: IL-6, IL-12p40, TNFα, MMP-9, sICAM, sVCAM, P-selectin, E-selectin, MCP-1 and oxidised LDL.

For series [1] the following is noted: 750 mg/day dose; healthy volunteers and patients with asthma (Dahlen et al., Hamilton et al.); cited from earlier work.
The test system of series [2] is IL-6, IL-12p40, TNFα, MMP-9, sVCAM, P-selectin, E-selectin, MCP-1 and oxidised LDL. In words: Other tertiary markers (IL-6, IL-12p40, TNFα, MMP-9, sVCAM, P-selectin, E-selectin, MCP-1, oxidised LDL), DG-031 crossover clinical trial. To be noted: DG-031 vs placebo. It is filed as in vivo, human. The method, then: as §1, §2, §3, §4
A further series deals with Lp-PLA2. In words: Lp-PLA2, DG-031 crossover clinical trial. The series is classed as in vivo, human. On the procedure: as §1, §2, §3, §4
Another series deals with C-reactive protein (CRP). Kind of series: Serum CRP, DG-031 crossover clinical trial incl. carry-over test. The series is classed as in vivo, human. The method, then: as §1
(§5) Patients (191 subjects) who met the study eligebility criteria were enrolled and randomized into 3 different dose-level groups: (1) 64 patients on 250 mg/day therapy with DG-031 (250 mg q.d.), vs placebo; (2) 64 patients on 500 mg/day therapy with DG-031 (250 mg b.i.d.) vs placebo; and (3) 63 patients on 750 mg/day therapy with DG-031 (250 mg t.i.d.) vs placebo. […] All patients received 3 tablets per day. Treatment periods, 4 weeks in duration each, were separated by a 2-week washout period. The placebo tablets were identical in shape, color, form and taste to the active tablets except that they contained no active drug ingredients. Treatment with DG-031 or placebo was in addition to the subject's standard care, including all medications and treatment plan as prescribed by the subject's cardiologist prior to enrollment. Due to early termination of 19 subjects (primarily related to unavailability due to travel), 11 were replaced prior to enrollment closure. Thus, a total of 191 subjects were enrolled, with 172 completing all 8 visits or 8 patients (4.4%) short of target.
All data were analyzed according to a pre-established analysis plan and by intention-to-treat. Hypotheses were tested at a two-sided nominal significance level of 0.05. Each arm of the study, as well as pooled sets (combining dose levels), was considered for the primary analysis. Each such set is a standard AB/BA cross-over design and in the primary analysis of efficacy, the levels of biomarkers of MI risk at the end of the treatment periods (visits 4 and 7) were used as primary response variables. The difference between DG-031 and placebo treatment was the primary outcome, assessed separately for each of the biomarkers. Treatment effect was tested using a two-sample t-test on the period differences for suitably transformed response variables, under an assumption of normality of the transformed data. We report treatment effect as one half of the observed mean differences in the two-sample t-test, with a 95% CI. No pre-tests for carry-over effect were performed as a part of the primary analysis. Tests for carry-over were done and are reported separately from results of primary analysis. As was prespecified for the primary analysis, a simple Bonferroni-adjustment based on 10 biomarkers for the primary objective for the pooled set of the two highest doses, was used to report the outcome of the primary objective. All p-values reported are nominal.
To cancel out potential seasonal effects, carry-over effects were also studied with two-sample t-tests that compare measurements of the AB (drug/placebo) group with the measurements of the BA (placebo/drug) group. To estimate the effect of the drug at visit 3 for the AB group, (v3−v2), with v3 and v2 denoting, respectively, measurements at visit 3 and visit 2, was used. Similarly (v4−v2) and (v5−v2) were used to estimate effects at visits 4 and 5. For estimating the effect at visit 6, [(v6−v2)+(v3−v2)] was used. Note that v6 from the BA group includes the drug effect after two weeks which cancels the drug effect at visit 3 from the AB group. Similarly, [(v7−v2)+(v4−v2)] was used to estimate the effect at visit 7. […]
(§6) Apart from measurements in plasma, LTB4 and MPO were also measured in whole blood preparations ex vivo following ionomycin-activation of leukocytes, using ELISA and mass spectrometry. […]

In a further series the test system is serum amyloid A. Kind of series: Serum amyloid A (SAA), DG-031 crossover clinical trial incl. carry-over test. The series is classed as in vivo, human. The method, then: as §1
as §5, with “Due to early termination of 19 subjects (primarily related to unavailability due to travel), 11 were replaced prior to enrollment closure. Thus, a total of 191 subjects were enrolled, with 172 completing all 8 visits or 8 patients (4.4%) short of target.” left out
as §3, §6

For series [3], the system named is myeloperoxidase (MPO) in whole blood. Kind of series: MPO production in ionomycin-activated whole blood ex vivo, DG-031 crossover clinical trial. Also noted: species or system human. On the procedure:
as §1
as §5, with “Due to early termination of 19 subjects (primarily related to unavailability due to travel), 11 were replaced prior to enrollment closure. Thus, a total of 191 subjects were enrolled, with 172 completing all 8 visits or 8 patients (4.4%) short of target.” left out
as §3, §6

Series [4] in a line: Safety and adverse events, DG-031 crossover clinical trial. The series is classed as in vivo, human.
Description: All study participants lived in the Reykjavik metropolitan area or its neighboring townships. All study participants were followed by the designated cardiologists at the University Hospital of Iceland, at their outpatient or private clinics, and all subjects had participated in a study on the genetics of MI. After the subject had given informed consent, a medical and medication history was completed, including co-morbidities, concomitant medications and specific details about the subject's cardiovascular history, including current status. All study participants were fasting and had not taken their medications prior to the study visit. Cardiologists examined the patients at all 8 visits and completed the case report forms. All blood was collected and processed immediately after sampling. All blood specimens used for the biomarker studies were processed within 2 hours of blood sampling.
as §5

In series [5] the test system is LTB4 produced by ionomycin-activated neutrophils. Kind of series: LTB4 production in ionomycin-activated whole blood/neutrophils ex vivo, DG-031 placebo-controlled crossover clinical trial. On the set-up: species or system human. On the procedure:
as §1, §5
All data were analyzed according to a pre-established analysis plan and by intention-to-treat. Hypotheses were tested at a two-sided nominal significance level of 0.05. Each arm of the study, as well as pooled sets (combining dose levels), was considered for the primary analysis. Each such set is a standard AB/BA cross-over design and in the primary analysis of efficacy, the levels of biomarkers of MI risk at the end of the treatment periods (visits 4 and 7) were used as primary response variables. The difference between DG-031 and placebo treatment was the primary outcome, assessed separately for each of the biomarkers. […]
as §6

The mark [6] stands for this setting: differences between visit 2 and 5, 500 and 750 mg/day vs placebo.

“Also recorded” adds a separate entry of the source.

For the compound `O=C(O)[C@@H](c1ccc(OCc2ccc3ccccc3n2)cc1)C1CCCC1` [DG-031, (R)-(+)-alpha-cyclopentyl-4-(2-quinolinylmethoxy)-Benzeneacetic acid], in the series with urinary leukotriene E4, the “increase in urine levels of LTE4” value was determined as 27%. In addition, in series [1], the “tolerability in previous phase I-III human studies” value is given as “well tolerated”. The “effect on other tertiary markers” value in [2] is on record as “no effects were observed”. For the same compound, the “effect on Lp-PLA2” value in the series with Lp-PLA2 (2 lower doses (250 mg/day and 500 mg/day)) is listed as “not significant”. In addition, the “increase in Lp-PLA2” value with Lp-PLA2 (highest dose of DG-031 (750 mg/day), nominal p=0.0056) was 9%. Besides, in the series with C-reactive protein (CRP) (differences between visit 2 and 5, 500 and 750 mg/day vs placebo, p=0.017), the “carry-over / persistent effect after discontinuation, CRP” value is given as “evidence of a persistent effect; also recorded: marked carry over effects were observed; also recorded: seems to persists until visit 7”. Besides, the “further CRP reduction in subjects already on statin therapy” value with C-reactive protein (CRP) (short term study, LT inhibitor added to statin therapy) is reported as 20-30%. For the same compound, the “reduction of serum levels of CRP” value in the series on C-reactive protein (CRP) (summary of the clinical trial) was “approximately 25%”. For the same compound, in the series on C-reactive protein (CRP) (visit 5 (after 2-week washout), two higher doses, p=0.017), the “reduction of CRP” value is recorded as “about 25%”. In the series with C-reactive protein (CRP) (visits 3 (2 weeks on therapy) and 4 (4 weeks on therapy), two higher doses), the “level of CRP during treatment” value is “dropped at visits 3 and 4, but not significantly”. For the same compound, the “carry-over / persistent effect after discontinuation, SAA” value in the series on serum amyloid A (differences between visit 2 and 5, 500 and 750 mg/day vs placebo, p=0.051) is “evidence of a persistent effect”. For the same compound, the “reduction of serum levels of SAA” value in the series with serum amyloid A (summary of the clinical trial) is recorded as “approximately 25%”. Besides, in series [3] (750 mg/day DG-031 vs placebo, nominal p=0.023), the “maximum reduction in MPO production (whole blood)” value is listed as 13%. Further, in series [3] (setting [6]), the “carry-over effect from treatment phase to placebo phase, MPO” value is given as “No carry over effects were observed”. Also, in [4] (active drug (any dose) vs none on placebo, p=0.032), the “dizziness, number of patients reporting” value stood at 6 patients. The liver transaminases entry in series [4] (active drug vs placebo) is on record as “no difference was detected”. Besides, the serious adverse events result in series [4] (between treatment groups or dose arms) is recorded as “no difference in serious adverse events”. For the same compound, in series [4] (clinical trial, 250-750 mg/day), the “overall safety and tolerability” value is “safe and well tolerated”. The “maximum reduction in LTB4 production by ionomycin-activated neutrophils ex vivo” value in series [5] (750 mg/day DG-031 vs placebo, 4-week treatment, MI patients carrying at-risk FLAP/LTA4 hydrolase haplotypes, nominal p=0.0026) worked out at 26%. In addition, the “carry-over effect from treatment phase to placebo phase, LTB4” value in series [5] (setting [6]) is on record as “No carry over effects were observed”. Also, in series [5] (pooled set of 500 mg and 750 mg arms, nominal p=0.0042, significant after correction for multiple testing), the “levels of LTB4 produced by ionomycin-activated neutrophils ex vivo (primary efficacy endpoint)” value was “reduces levels of LTB4”.
